From patent US8389739B1, “Modulators of retinoid-related orphan receptor gamma” (Orphagen Pharmaceuticals, priority 2006, dated 2013)
Where “and” joins values, the source holds several entries; their conditions need not be identical. Identical values can stand only once. Like-named read-outs stand apart in the source and are kept apart here.

Columns and labels:
mRORγ = target: T1, mRORγ (Mus musculus, UniProt P51450); test: Transcriptional assay, Gal4-mRORγ with luciferase reporter in CHO cells; assay type: cell-based
T1 construct: expressed in transfected cells; host or cells: CHO cells, transient transfection
Description: The complete Gal4-mRORγ nucleotide sequence is shown below:
(§1) A firefly luciferase reporter gene for Gal4 DBD hybrid receptors, such as Gal4-RORγ, contains five copies of the Gal4 17-mer response element in its promoter and the coding sequence for firefly luciferase (pG5-luc, Promega). CHO (Chinese Hamster Ovary) cells were cultured in Ham's F12 medium supplemented with 10% fetal calf serum (Gemini Biologicals), 10 μg/ml penicillin and streptomycin, and were maintained in a humidified 37° C. incubator (Thermo Electron, Steri-Cycle) with 5% CO2. 24 hours before transfection, cells were plated in T175 flasks (5×10^6 cells/flask) or T75 flasks (1.7×10^6 cells/flask). Transient transfection of CHO cells was performed using TransIT-CHO reagents (Minis, Madison, Wis.) with a mixing ratio of 2:6:1 between plasmid DNA (in μg), TransIT-CHO (in μl) and CHO-mojo (in μl).
(§2) Plates are maintained at 37° C. in a humidified atmosphere with 7% CO2 overnight. Four (4) hours after cell seeding, compounds dissolved in DMSO at 10 mM were added to cells at final concentrations of 20 micromolar (μM) to 20 nanomolar (nM) in 0.2% DMSO in triplicate plates. Approximately 40 hours later, cytotoxicity in the assay well was characterized by addition of the dye resazurin (O'Brien, Wilson et al. 2000) to a final concentration of 3 μM. […] Percent viability was determined as 2 hour fluorescence, minus background at t=0 hours, normalized to DMSO controls. For detection of luciferase activity, media was removed from plates after the measurement of resazurin conversion, and SteadyLite luciferase reagent (Perkin-Elmer) was added (30 μl/well). Luminescence is detected with a Victor 2-V plate reader (Perkin-Elmer) and normalized to luciferase activity of DMSO control wells alone.

[1] = target: T2, hVDR (Vitamin D receptor) (Homo sapiens, UniProt P11473); test: Crossreactive receptor transcriptional assay (Gal4 hybrid); assay type: cell-based
T2 construct: 90-427; expressed in transfected cells; host or cells: CHO cells, transient transfection
T2 sequence (P11473 90-427): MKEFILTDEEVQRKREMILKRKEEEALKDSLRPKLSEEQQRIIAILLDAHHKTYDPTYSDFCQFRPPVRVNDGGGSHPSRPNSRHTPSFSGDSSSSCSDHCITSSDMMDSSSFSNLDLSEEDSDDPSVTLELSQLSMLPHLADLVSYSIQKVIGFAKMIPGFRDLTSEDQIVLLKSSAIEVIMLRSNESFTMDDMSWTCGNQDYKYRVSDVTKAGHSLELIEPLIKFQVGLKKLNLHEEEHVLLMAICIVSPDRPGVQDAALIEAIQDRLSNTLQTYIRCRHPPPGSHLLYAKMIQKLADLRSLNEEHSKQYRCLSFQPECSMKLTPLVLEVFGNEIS
Description: as §1, with “cells/flask).” for “cells/flask). Transient transfection of CHO cells was performed using TransIT-CHO reagents (Minis, Madison, Wis.) with a mixing ratio of 2:6:1 between plasmid DNA (in μg), TransIT-CHO (in μl) and CHO-mojo (in μl).”
as §2, with “Four (4) hours after cell seeding, compounds dissolved in DMSO at 10 mM were added to cells at final concentrations of 20 micromolar (μM) to 20 nanomolar (nM) in 0.2% DMSO in triplicate plates.” left out

[2] = Table 4A, medians of two or more assays, unit inferred, read-out: EC50 Transcriptional
[3] = Table 6, read-out: Potency (EC50) at hVDR
[4] = read-out: EC50 in the transcriptional assay for RORγ

T1 sequence (P51450 with tags, fused parts or gaps): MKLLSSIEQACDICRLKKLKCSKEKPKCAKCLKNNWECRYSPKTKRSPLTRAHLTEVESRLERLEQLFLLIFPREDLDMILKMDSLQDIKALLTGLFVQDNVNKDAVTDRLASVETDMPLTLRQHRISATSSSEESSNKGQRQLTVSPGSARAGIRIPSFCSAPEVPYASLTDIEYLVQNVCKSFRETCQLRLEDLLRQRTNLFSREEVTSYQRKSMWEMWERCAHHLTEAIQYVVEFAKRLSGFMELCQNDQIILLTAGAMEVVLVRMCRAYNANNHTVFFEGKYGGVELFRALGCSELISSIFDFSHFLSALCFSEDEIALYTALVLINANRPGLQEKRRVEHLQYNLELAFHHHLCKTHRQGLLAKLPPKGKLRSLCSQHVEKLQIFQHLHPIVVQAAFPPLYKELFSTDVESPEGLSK

SMILES | EC50 (mRORγ; [2]) [µM] | EC50 [1, 3] [µM] | EC50 (mRORγ; [4]) | further results
COC(C)CCC(C)C1CCC2C3CC(O)C4CC(O)CCC4(C)C3CCC12C (centres unmarked) [OR-12872, 17-(4-Methoxy-1-methyl-pentyl)-10,13-dimethyl-hexadecahydro-cyclopenta[a]phenanthrene-3,6-diol] |  | > 10 |  | EC50 (mRORγ; Table 2, agonists, antagonist OR-376 (1.5 μM) added to reduce basal transcriptional activity, read-out: EC50 in micromolar at mRORγ Transcriptional): 0.44 µM
O=S(=O)(c1ccccc1)N(CC(F)(F)F)c1ccc(C(O)(C(F)(F)F)C(F)(F)F)cc1 [Compound T0901317, N-(2,2,2-Trifluoro-ethyl)-N-[4-(2,2,2-trifluoro-1-hydroxy-1-trifluoromethyl-ethyl)-phenyl]-benzenesulfonamide, reference compound] |  | > 10 |  | 
C[C@@H]1CC[C@@]2(OC1)O[C@H]1C[C@H]3[C@@H]4CC[C@H]5C[C@@H](O)CC[C@]5(C)[C@H]4C[C@@H](O)[C@]3(C)[C@H]1[C@@H]2C [OR-885, 5α,20α, 22α, 25D-SPIROSTAN-3β, 12β-DIOL] |  |  | < 1 µM | EC50 (mRORγ; Table 3, steroidal antagonists, read-out: Assay EC50 in micromolar transcriptional): 0.2 µM; EC50 [1]: > 10 µM
CC(=O)O[C@H]1CC[C@@]2(C)C(CC[C@]3(C)C2C(=O)C=C2C4[C@@H](C)[C@H](C)CC[C@]4(C(=O)O)CC[C@]23C)C1(C)C (stereo in doubt) [OR-13571, 10-Acetoxy-1,2,6a,6b,9,9,12a-heptamethyl-13-oxo-1,3,4,5,6,6a,6b,7,8,8a,9,10,11,12,12a,12b,13,14b-octadecahydro-2H-picene-4a-carboxylic acid] | 0.27 | > 10 | < 1 µM | 

The next lines start with results.

EC50 (mRORγ; [2]) [µM] | EC50 [1, 3] [µM] | SMILES | EC50 (mRORγ; [4]) | further results
0.33 | > 10 | COc1c(C=NNc2nc(N3CCCCC3)nc(N3CCCCC3)n2)cccc1[N+](=O)[O-] [OR-2161, N-(4,6-Di-piperidin-1-yl-[1,3,5]triazin-2-yl)-N′-(2-methoxy-3-nitro-benzylidene)-hydrazine] |  | 
 | > 10 | CCN(c1ccc(C(O)(C(F)(F)F)C(F)(F)F)cc1)S(=O)(=O)c1ccc([N+](=O)[O-])cc1 [OR-1050, N-Ethyl-4-nitro-N-[4-(2,2,2-trifluoro-1-hydroxy-1-trifluoromethyl-ethyl)-phenyl]-benzenesulfonamide] | < 1 µM and 0.3 µM | EC50 (mRORγ; Table 1, antagonists, inhibition of basal Gal4-mRORγ transcription in CHO cells, read-out: Assay EC50 in micromolar at mRORγ Transcriptional): 0.26 µM; EC50 (mRORγ; Table 7, taken from Table 1, read-out: Assay EC50 in micromolar at mRORγ Transcriptional): 0.26 µM
1.46 | > 10 | CCn1c(CNc2ccc(Cl)cc2)nnc1SCC(=O)Nc1cccc2ccccc12 [OR-133008, 2-{5-[(4-Chloro-phenylamino)-methyl]-4-ethyl-4H-[1,2,4]triazol-3-ylsulfanyl}-N-naphthalen-1-yl-acetamide] |  | 
